Source: patent US9958434B2, “Fluorescent probe sensing tyrosine kinase and use thereof” (POSTECH ACADEMY-INDUSTRY FOUNDATION, priority 2013, dated 2018)

Experiments:
PDGFRa = target: T1, PDGFRa (Homo sapiens, UniProt P16234); assay: Protein binding selectivity by change in fluorescence (fluorescence turn-on on binding)
T1 construct: purchased Carna Biosciences
Description: More particularly, to determine whether compound 1 selectively binds to a kinase enzyme, various proteins (including a kinase enzyme) were used to check a change in fluorescence. In this experiment, a buffer (100 mM HEPES buffer, pH 7.4) was used as the solvent, and a kinase commercially available from Carna Biosciences was used as the kinase enzyme. Here, each kinase enzyme was stored at −80° C. together with a solvent (50 mM Tris-HCl, 150 mM NaCl, 0.1% CHAPS, 1 mM DTT, and 10% Glycerol, pH 7.5) kindly provided by the manufacturer. […] A 96-well fluorescence assay plate (commercially available from SPL Life Science) was used as a plate used upon measurement of fluorescence, and a VCITOR 3 multilabel counter (commercially available from Perkin Elmer-Wellesley) was used as a measuring machine. A 355 nm-thick filter was used to produce excitation wavelengths of the measuring machine, and a 535 nm-thick filter was used to produce emission wavelengths of the measuring machine. Stirring was performed at 37° C. for 24 hours at a rotary speed of 170 rpm using an NB-205Q model (commercially available from N-BIOTEK). Compound 1 was dissolved in a DMSO solution (1 mM, 10 mM, 50 mM, 100 mM, and 200 mM) to be used, and DMSO in every tube was adjusted to be substantially the same content (less than 1%) under the finally used solvent conditions. Mg^2+ and ATP were used at a content of 1 mM.
In the graph shown in FIG. 2, the horizontal axis represents kinds of proteins, and the vertical axis represents fluorescence intensities of the proteins. Each experimental value was basically an average value of three experiments conducted through the same course for preparing for experiments, a concentration of compound 1 used was 100 μM, and an amount of each protein was 0.2 μg/mL. The kinds of proteins indicated on the horizontal axis are as follows.
More particularly, Model WUV-L10 commercially available from WiseUV was used as a UV excitation device, and the solvent and experiment conditions used were substantially the same as in Example 3. Here, a fluorescence emission observed in the UV excitation device (UV excitation at 350 nm to 430 nm) was determined by taking an image.
More particularly, compound 1 (100 μM) and the kinase enzyme, Src or PDGFRa, were used at contents of 0.2 μg and 1 μg, respectively, and the solvent and experiment conditions used were substantially the same as in Example 3.
More particularly, the solvent and experiment conditions used were substantially the same as in Example 3. In the graph shown in FIG. 7, A represents a fluorescence intensity when compound 1 (100 μM) is used alone, B represents a fluorescence intensity when Mg (1 mM) is added to compound 1, C represents a fluorescence intensity when ATP (1 mM) is added to compound 1, and D represents a fluorescence intensity when compound 1 is treated with Mg (1 mM) and ATP (1 mM) at the same time.
More particularly, a concentration of the kinase enzyme was set to 0.2 μg/mL, fluorescence intensity according to the concentration of compound 1 was measured in the presence of Mg (1 mM) and ATP (1 mM), and the solvent conditions and other conditions were substantially the same as in Example 3.

[1] = tested on: B16F10, CT26, SNU-475, A431, SKBR3, HeLa, U87MG cancer cells; assay: Fluorescence turn-on in cancer cells, single-photon and two-photon fluorescence microscopy; format: cell-based, mouse, human; conditions: 50 μM, one hour; single-photon ex 405 nm, two-photon ex 880 nm, em 500 to 550 nm
Description: More particularly, a total of seven kinds of cancer cells, for example, (a) B16F10 mouse skin cancer cells, (b) CT26 mouse colon cancer cells, (c) SNU-475 human liver cancer cells, (d) A431 human epidermoid carcinoma cells, (e) SKBR3 human breast cancer cells, (f) HeLa human uterine cancer cells, and (g) U87MG human brain tumor cells, were treated with compound 1, and fluorescence images of the cancer cells were observed under a single-photon (confocal) fluorescence microscope (FV1000 model, Olympus) and a two-photon fluorescence microscope (Chameleon Ultra, Coherent, home-built version). Each of the cancer cells were incubated in a minimum essential medium with Earle's balanced salts (MEM/EBSS), a Dulbecco's modified Eagle medium (DMEM), a Roswell Park Memorial Institute (RPMI) medium, a fetal bovine serum (FBS), a penicillin-streptomycin (PS) medium, phosphate buffered saline (PBS), and a trypsin-EDTA culture broth, all of which were commercially available from Hyclone. In this case, the incubation was performed at 37° C. […] When the preparation was completed, a fluorescence image was obtained using a fluorescence microscope.
In FIG. 11, the top panel represents a bright field image, the middle panel represents a single-photon fluorescence microscope image of the cells, and the bottom panel represents a two-photon fluorescence microscope image of the cells.

[2] = tested on: mouse cutaneous melanoma cells (B16F10); assay: Cytotoxicity, cell counting kit-8 (CCK-8); format: cell-based; conditions: B16F10, 0 to 200 μM, incubated for an hour
Description: The present inventors confirmed the cytotoxicity of compound 1 in mouse cutaneous melanoma cells (B16F10) using a cell counting kit-8 (CCK-8) method (Dojindo laboratories, Kumamoto, Japan).
More particularly, the B16F10 cells were incubated for 24 hours (at 37° C.) at a density of 5000 cells/well in a 96-well plate under a 5% CO2 atmosphere. The cells were treated with an increasing concentration of compound 1 (10 μM, 30 μM, 50 μM, 100 μM, and 200 μM) in a DMSO solvent, and then incubated for an hour. Thereafter, the cells were treated with 10 μL of a CCK-8 solution, and then incubated for 2 hours.

[3] = tested on: six kinase enzymes: ABL, BRAF, PDGFRa, RSK2, Src, TYK2; assay: Effect of kinase inhibitor on binding of compound 1 to kinase enzymes (fluorescence intensity)
Description: In this experiment, a buffer (100 mM HEPES buffer, pH 7.4) was used as the solvent, and a kinase commercially available from Carna Biosciences was used as the kinase enzyme. Here, each kinase enzyme was stored at −80° C. together with a solvent (50 mM Tris-HCl, 150 mM NaCl, 0.1% CHAPS, 1 mM DTT, and 10% Glycerol, pH 7.5) kindly provided by the manufacturer. […] A 96-well fluorescence assay plate (commercially available from SPL Life Science) was used as a plate used upon measurement of fluorescence, and a VCITOR 3 multilabel counter (commercially available from Perkin Elmer-Wellesley) was used as a measuring machine. A 355 nm-thick filter was used to produce excitation wavelengths of the measuring machine, and a 535 nm-thick filter was used to produce emission wavelengths of the measuring machine. […]
More particularly, an effect of the inhibitor on a total of the six kinase enzymes was determined, and the six kinase enzymes are as follows: (A) ABL, (B) BRAF, (C) PDGFRa, (D) RSK2, (E) Src, and (F) TYK2. […]
In this case, compound 1 (100 μM), ATP (1 mM), Mg (1 mM), and a kinase enzyme (0.2 μg/ml) were stirred for 24 hours (at 37° C.), and an inhibitor (100 μM) was then treated. […] Here, a left bar of each of A to F represents a fluorescence intensity before treatment of the inhibitor, and a right bar of each of A to F represents a fluorescence intensity after treatment of the inhibitor.

T1 sequence (P16234 24-1089): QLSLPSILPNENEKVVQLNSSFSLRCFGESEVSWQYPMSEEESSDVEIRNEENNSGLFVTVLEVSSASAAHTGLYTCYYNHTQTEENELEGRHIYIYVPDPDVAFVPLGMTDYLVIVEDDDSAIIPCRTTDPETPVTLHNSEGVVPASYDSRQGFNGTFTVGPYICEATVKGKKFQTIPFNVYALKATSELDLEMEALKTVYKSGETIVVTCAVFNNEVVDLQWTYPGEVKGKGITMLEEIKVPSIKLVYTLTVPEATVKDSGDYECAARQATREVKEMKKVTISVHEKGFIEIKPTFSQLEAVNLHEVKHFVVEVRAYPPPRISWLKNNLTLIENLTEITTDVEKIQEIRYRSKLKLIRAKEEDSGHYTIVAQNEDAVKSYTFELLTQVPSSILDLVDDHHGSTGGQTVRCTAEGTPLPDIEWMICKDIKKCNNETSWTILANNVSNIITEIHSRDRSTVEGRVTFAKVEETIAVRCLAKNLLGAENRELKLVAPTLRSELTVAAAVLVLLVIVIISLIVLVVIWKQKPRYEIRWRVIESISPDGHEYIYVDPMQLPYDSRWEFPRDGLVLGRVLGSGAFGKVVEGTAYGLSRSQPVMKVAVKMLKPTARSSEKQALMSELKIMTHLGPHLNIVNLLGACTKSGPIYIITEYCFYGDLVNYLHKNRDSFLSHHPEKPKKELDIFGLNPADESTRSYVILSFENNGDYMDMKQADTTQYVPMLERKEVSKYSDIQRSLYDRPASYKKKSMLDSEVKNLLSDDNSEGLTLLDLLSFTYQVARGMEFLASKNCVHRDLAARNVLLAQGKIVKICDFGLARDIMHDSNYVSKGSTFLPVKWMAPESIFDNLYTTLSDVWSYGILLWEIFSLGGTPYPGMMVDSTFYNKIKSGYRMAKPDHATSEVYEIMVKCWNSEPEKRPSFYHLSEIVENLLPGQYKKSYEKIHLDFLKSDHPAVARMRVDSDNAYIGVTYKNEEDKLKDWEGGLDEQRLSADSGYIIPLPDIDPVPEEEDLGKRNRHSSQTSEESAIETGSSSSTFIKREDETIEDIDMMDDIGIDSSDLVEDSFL

fluorescence under UV excitation (image) (PDGFRa; PDGFRa with ATP and Mg, 37° C. 24 hours, UV 350 nm to 430 nm, compared with compound 1 alone): strong fluorescence
fluorescence intensity (PDGFRa; compound 1 100 μM, protein 0.2 μg/mL, with Mg and ATP (1 mM), 37° C. 24 hours): highest fluorescence intensity
increase in fluorescence intensity (PDGFRa; compound 1 at approximately 50 μM, kinase 0.2 μg/mL, Mg 1 mM, ATP 1 mM): approximately 50%
fluorescence intensity after later treatment of inhibitor ([3]; 24 hours 37° C. with kinase, Mg, ATP, then inhibitor 100 μM for another 24 hours): decreased
Compound: CN(C)c1ccc2cc(C=O)c(O)cc2c1 [compound 1, 6-(dimethylamino)-3-hydroxyl-2-naphthaldehyde]
fluorescence intensity, effect of cofactors (PDGFRa; compound 1 100 μM, case D: Mg (1 mM) and ATP (1 mM) together): highest increase in fluorescence intensity
fluorescence signal intensity according to concentration of kinase enzyme (PDGFRa; compound 1 100 μM, enzyme 0.2 μg and 1 μg): stronger fluorescence signal intensity at higher concentrations
fluorescence image in cancer cells [1]: bright fluorescence image
cell viability [2]: more than 90%
fluorescence intensity with inhibitor included ([3]; compound 1 100 μM, kinase 0.2 μg/ml, Mg 1 mM, ATP 1 mM, Gleevec 100 μM together): did not selectively bind to the kinase enzymes to cause a sufficient increase in fluorescence intensity
